Source: the NIST ThermoML archive (doi:10.1016/j.jct.2019.01.007)
Several values for one entry are separate records, joined by “and”; a condition that tells them apart may be missing. Equal entries are not always repeated. ± gives the expanded uncertainty stated by the source.

Settings: Liquid

CCCCCCCCCC(=O)OC [methyl decanoate]
Settings | vapor or sublimation pressure
273.35 K | 0.0004731 ± 6.1e-06 kPa
273.84 K | 0.0004984 ± 6.4e-06 kPa
274.32 K | 0.0005246 ± 6.7e-06 kPa
274.8 K | 0.0005538 ± 7.1e-06 kPa
275.29 K | 0.0005879 ± 7.5e-06 kPa
275.77 K | 0.0006152 ± 7.8e-06 kPa
276.26 K | 0.0006487 ± 8.3e-06 kPa
276.74 K | 0.0006849 ± 8.7e-06 kPa
277.23 K | 0.0007225 ± 9.2e-06 kPa
277.71 K | 0.0007597 ± 9.7e-06 kPa
278.2 K | 0.0008032 ± 1e-05 kPa
278.69 K | 0.0008442 ± 1.1e-05 kPa
279.18 K | 0.0008873 ± 1.1e-05 kPa
279.66 K | 0.0009341 ± 1.2e-05 kPa
280.15 K | 0.0009819 ± 1.2e-05 kPa
280.64 K | 0.001035 ± 1.3e-05 kPa
281.12 K | 0.001093 ± 1.4e-05 kPa
281.47 K | 0.001128 ± 1.4e-05 kPa
282.96 K | 0.001314 ± 1.7e-05 kPa
283.48 K | 0.001386 ± 1.7e-05 kPa
284.46 K | 0.001532 ± 1.9e-05 kPa
284.96 K | 0.001613 ± 2e-05 kPa
285.43 K | 0.001692 ± 2.1e-05 kPa
285.64 K | 0.00173 ± 2.2e-05 kPa
285.74 K | 0.001743 ± 2.2e-05 kPa
285.95 K | 0.001776 ± 2.2e-05 kPa
286.44 K | 0.001869 ± 2.3e-05 kPa
286.95 K | 0.001967 ± 2.5e-05 kPa
287.44 K | 0.002063 ± 2.6e-05 kPa
287.94 K | 0.002166 ± 2.7e-05 kPa and 0.002174 ± 2.7e-05 kPa
288.93 K | 0.002392 ± 3e-05 kPa
289.31 K | 0.002487 ± 3.1e-05 kPa
289.43 K | 0.002508 ± 3.1e-05 kPa
290.42 K | 0.002759 ± 3.4e-05 kPa
290.53 K | 0.002791 ± 3.5e-05 kPa
290.92 K | 0.002894 ± 3.6e-05 kPa
291.81 K | 0.003154 ± 3.9e-05 kPa
291.92 K | 0.003182 ± 4e-05 kPa
292.42 K | 0.003341 ± 4.2e-05 kPa
292.9 K | 0.003501 ± 4.4e-05 kPa
293.41 K | 0.00367 ± 4.6e-05 kPa
293.91 K | 0.003845 ± 4.8e-05 kPa
294.3 K | 0.00399 ± 5e-05 kPa
294.9 K | 0.004224 ± 5.3e-05 kPa
295.4 K | 0.004415 ± 5.5e-05 kPa
295.51 K | 0.004442 ± 5.5e-05 kPa
295.9 K | 0.004625 ± 5.8e-05 kPa
296.39 K | 0.004836 ± 6e-05 kPa
296.77 K | 0.004989 ± 6.2e-05 kPa
297.39 K | 0.005295 ± 6.6e-05 kPa
297.89 K | 0.005534 ± 6.8e-05 kPa
297.98 K | 0.005566 ± 6.9e-05 kPa
298.88 K | 0.006057 ± 7.5e-05 kPa
299.38 K | 0.006339 ± 7.9e-05 kPa
300.37 K | 0.00692 ± 8.5e-05 kPa
300.46 K | 0.006953 ± 8.6e-05 kPa
300.87 K | 0.007243 ± 9e-05 kPa
301.87 K | 0.007893 ± 9.8e-05 kPa
302.37 K | 0.008238 ± 0.0001 kPa
302.84 K | 0.008517 ± 0.00011 kPa
302.94 K | 0.008627 ± 0.00011 kPa
303.36 K | 0.008981 ± 0.00011 kPa
303.76 K | 0.009236 ± 0.00012 kPa
303.81 K | 0.0093 ± 0.00012 kPa
303.82 K | 0.009286 ± 0.00012 kPa and 0.009287 ± 0.00012 kPa
303.86 K | 0.00937 ± 0.00012 kPa
304.85 K | 0.0102 ± 0.00013 kPa and 0.01021 ± 0.00013 kPa
305.24 K | 0.01047 ± 0.00013 kPa
305.26 K | 0.01052 ± 0.00013 kPa
305.29 K | 0.01057 ± 0.00013 kPa
305.35 K | 0.01065 ± 0.00013 kPa
305.42 K | 0.01069 ± 0.00013 kPa
307.68 K | 0.01286 ± 0.0002 kPa
308.6 K | 0.01393 ± 0.00021 kPa
308.64 K | 0.014 ± 0.00021 kPa
310.04 K | 0.0157 ± 0.00022 kPa
310.06 K | 0.01581 ± 0.00022 kPa
310.09 K | 0.0158 ± 0.00022 kPa
310.1 K | 0.01574 ± 0.00022 kPa
310.14 K | 0.01575 ± 0.00022 kPa
312.52 K | 0.01912 ± 0.00026 kPa
313.44 K | 0.02065 ± 0.00028 kPa
313.47 K | 0.0207 ± 0.00028 kPa
314.89 K | 0.02316 ± 0.00031 kPa
314.94 K | 0.0232 ± 0.00031 kPa
317.35 K | 0.02798 ± 0.00037 kPa and 0.02794 ± 0.00037 kPa
317.42 K | 0.02817 ± 0.00037 kPa
318.24 K | 0.0299 ± 0.00039 kPa
318.28 K | 0.03012 ± 0.00039 kPa
319.72 K | 0.0337 ± 0.00044 kPa
319.78 K | 0.03379 ± 0.00044 kPa and 0.03376 ± 0.00044 kPa
322.16 K | 0.04037 ± 0.00052 kPa
322.2 K | 0.0406 ± 0.00052 kPa
322.27 K | 0.04082 ± 0.00053 kPa
323.11 K | 0.04344 ± 0.00056 kPa
324.57 K | 0.04813 ± 0.00062 kPa
324.61 K | 0.04845 ± 0.00062 kPa
324.63 K | 0.04869 ± 0.00062 kPa
327.04 K | 0.05787 ± 0.00073 kPa
327.09 K | 0.05806 ± 0.00074 kPa
327.93 K | 0.06147 ± 0.00078 kPa
327.97 K | 0.06194 ± 0.00078 kPa
329.38 K | 0.06819 ± 0.00087 kPa
329.43 K | 0.06843 ± 0.00088 kPa
329.46 K | 0.06916 ± 0.0009 kPa
329.51 K | 0.0691 ± 0.00088 kPa
330.86 K | 0.07578 ± 0.00095 kPa
331.89 K | 0.08137 ± 0.001 kPa
331.9 K | 0.08129 ± 0.001 kPa
331.96 K | 0.08174 ± 0.001 kPa
332.78 K | 0.08635 ± 0.0011 kPa
334.24 K | 0.09568 ± 0.0012 kPa
334.28 K | 0.09573 ± 0.0012 kPa
334.33 K | 0.09658 ± 0.0012 kPa and 0.09631 ± 0.0012 kPa
334.38 K | 0.09672 ± 0.0012 kPa
335.68 K | 0.1054 ± 0.0013 kPa
336.74 K | 0.1133 ± 0.0014 kPa
336.79 K | 0.1135 ± 0.0014 kPa
337.62 K | 0.1198 ± 0.0015 kPa
339.09 K | 0.1322 ± 0.0017 kPa
339.17 K | 0.1333 ± 0.0017 kPa
339.24 K | 0.1341 ± 0.0017 kPa
340.51 K | 0.1449 ± 0.0018 kPa
340.55 K | 0.1456 ± 0.0018 kPa
341.5 K | 0.1546 ± 0.0019 kPa
341.58 K | 0.1555 ± 0.0019 kPa
341.63 K | 0.1564 ± 0.002 kPa
341.66 K | 0.157 ± 0.002 kPa
348.04 K | 0.2325 ± 0.0029 kPa
352.92 K | 0.3135 ± 0.0039 kPa
357.8 K | 0.4166 ± 0.0051 kPa
362.67 K | 0.5493 ± 0.0068 kPa
367.55 K | 0.7207 ± 0.0089 kPa
372.43 K | 0.9271 ± 0.011 kPa
374.86 K | 1.054 ± 0.013 kPa
377.3 K | 1.195 ± 0.015 kPa

CCCCCCCCCCCC(=O)OC [methyl dodecanoate]
Transpiration method
Settings | vapor or sublimation pressure [kPa]
323.8 K | 0.00609 ± 0.0012
325.9 K | 0.00701 ± 0.0014
327.9 K | 0.00853 ± 0.0017
329.9 K | 0.00982 ± 0.002
331.8 K | 0.0113 ± 0.0023
333.9 K | 0.0134 ± 0.0027
335.7 K | 0.0164 ± 0.0033
338.7 K | 0.0198 ± 0.004
340.7 K | 0.0228 ± 0.0046
344.1 K | 0.0291 ± 0.0059
345.9 K | 0.0331 ± 0.0067
349.3 K | 0.0413 ± 0.0084
351.3 K | 0.047 ± 0.0096
354.4 K | 0.0603 ± 0.012
356.4 K | 0.0682 ± 0.014
359.6 K | 0.0828 ± 0.017
361.5 K | 0.0952 ± 0.019
364.7 K | 0.11 ± 0.022
366.7 K | 0.132 ± 0.027
370 K | 0.16 ± 0.033
371.8 K | 0.178 ± 0.036
374.7 K | 0.214 ± 0.044
378.6 K | 0.263 ± 0.053
381.7 K | 0.314 ± 0.064
386.8 K | 0.412 ± 0.084
389.6 K | 0.491 ± 0.1
391.9 K | 0.534 ± 0.11
394.9 K | 0.635 ± 0.13
397 K | 0.694 ± 0.14
399.2 K | 0.774 ± 0.16
401.3 K | 0.898 ± 0.18

CCCCCCCCCCCCCCCCC(=O)OC [methyl heptadecanoate]
Transpiration method
Settings | vapor or sublimation pressure [kPa]
337.9 K | 0.000259 ± 5.3e-05
339.75 K | 0.000298 ± 6.1e-05
341.8 K | 0.000371 ± 7.6e-05
342.85 K | 0.000395 ± 8.1e-05
345.85 K | 0.000532 ± 0.00011
347.95 K | 0.000685 ± 0.00014
350 K | 0.000803 ± 0.00016
354.3 K | 0.00114 ± 0.00023
357.5 K | 0.00144 ± 0.00029
360.6 K | 0.00195 ± 0.0004
362.5 K | 0.00206 ± 0.00042
365.25 K | 0.00272 ± 0.00055
366.85 K | 0.00301 ± 0.00061
369 K | 0.00377 ± 0.00077
372.3 K | 0.00464 ± 0.00094
376.2 K | 0.0058 ± 0.0012
379.2 K | 0.00772 ± 0.0016
382.25 K | 0.0089 ± 0.0018
385.65 K | 0.0111 ± 0.0023
387 K | 0.0126 ± 0.0026
389.25 K | 0.0152 ± 0.0031
391.3 K | 0.0176 ± 0.0036
393.4 K | 0.0186 ± 0.0038
396.2 K | 0.0246 ± 0.005
399.2 K | 0.0302 ± 0.0061
402.35 K | 0.0355 ± 0.0072
405.3 K | 0.044 ± 0.009
408.15 K | 0.0523 ± 0.011
412.2 K | 0.0635 ± 0.013
